{"source": "ChEMBL document CHEMBL5131475", "about": "“Metallo-β-lactamases inhibitor fisetin attenuates meropenem resistance in NDM-1-producing Escherichia coli” (Eur J Med Chem, 2022)", "key": {"Escherichia coli [1]": {"tested_on": "Escherichia coli", "experiment": "Synergistic antibacterial activity against NDM-1 positive Escherichia coli ZC-YN3 isolates assessed as fractional Inhibitory concentration index incubated for 18 to 24 hrs in presence of lincomycin by CLSI based broth microdilution method", "assay_type": "functional", "conditions": "time 18-24 hrs"}, "Mus musculus [2]": {"tested_on": "Mus musculus", "experiment": "Antibacterial activity in BALB/c mouse infected with NDM-1 positive Escherichia coli ZJ487 assessed as increase in survival rate at 10 mg/kg, sc administered every 12 hrs and measured after 96 hrs post infection", "assay_type": "functional"}, "Escherichia coli [3]": {"tested_on": "Escherichia coli", "experiment": "Synergistic antibacterial activity against NDM-1 negative Escherichia coli BL21(DE3) (pET28a) isolates assessed as fractional Inhibitory concentration index incubated for 18 to 24 hrs in presence of meropenem by CLSI based broth microdilution method", "assay_type": "functional", "conditions": "time 18-24 hrs"}, "Escherichia coli [4]": {"tested_on": "Escherichia coli", "experiment": "Synergistic antibacterial activity against NDM-1 positive Escherichia coli ZC-YN3 isolates assessed as fractional Inhibitory concentration index incubated for 18 to 24 hrs in presence of streptomycin by CLSI based broth microdilution method", "assay_type": "functional", "conditions": "time 18-24 hrs"}, "Escherichia coli [5]": {"tested_on": "Escherichia coli", "experiment": "Synergistic antibacterial activity against NDM-1 positive Escherichia coli ZC-YN3 isolates assessed as fractional Inhibitory concentration index incubated for 18 to 24 hrs in presence of colistin by CLSI based broth microdilution method", "assay_type": "functional", "conditions": "time 18-24 hrs"}, "Escherichia coli [6]": {"tested_on": "Escherichia coli", "experiment": "Synergistic antibacterial activity against NDM-1 positive Escherichia coli ZC-YN3 isolates assessed as fractional Inhibitory concentration index incubated for 18 to 24 hrs in presence of ciprofloxacin by CLSI based broth microdilution method", "assay_type": "functional", "conditions": "time 18-24 hrs"}, "[7]": {"experiment": "Inhibition of metallo-beta-lactamase VIM-1 (unknown origin) using nitrocefin as substrate preincubated for 15 min followed by substrate addition and measured after 15 min by microplate reader assay", "design": "species or system Bacteria"}, "Escherichia coli [8]": {"tested_on": "Escherichia coli", "experiment": "Antibacterial activity against NDM-1 positive Escherichia coli ZC-YN3 isolates assessed as streptomycin MIC incubated for 18 to 24 hrs by CLSI based broth microdilution method", "assay_type": "functional", "conditions": "time 18-24 hrs"}, "Escherichia coli [9]": {"tested_on": "Escherichia coli", "experiment": "Antibacterial activity against NDM-1 negative Escherichia coli BL21(DE3) (pET28a) isolates assessed as meropenem MIC incubated for 18 to 24 hrs by CLSI based broth microdilution method", "assay_type": "functional", "conditions": "time 18-24 hrs"}, "Mus musculus [10]": {"tested_on": "Mus musculus", "experiment": "Antibacterial activity in BALB/c mouse infected with NDM-1 positive Escherichia coli ZJ487 assessed as mouse death rate at 50 mg/kg, sc administered every 12 hrs and measured after 96 hrs post infection", "assay_type": "functional"}, "Escherichia coli [11]": {"tested_on": "Escherichia coli", "experiment": "Antibacterial activity against NDM-1 positive Escherichia coli ZC-YN3 isolates assessed as vancomycin MIC incubated for 18 to 24 hrs by CLSI based broth microdilution method", "assay_type": "functional", "conditions": "time 18-24 hrs"}, "Escherichia coli [12]": {"tested_on": "Escherichia coli", "experiment": "Antibacterial activity against pET28a-NDM-1 positive Escherichia coli BL21(DE3) isolates assessed as colistin MIC incubated for 18 to 24 hrs by CLSI based broth microdilution method", "assay_type": "functional", "conditions": "time 18-24 hrs"}, "Escherichia coli [13]": {"tested_on": "Escherichia coli", "experiment": "Synergistic antibacterial activity against pET28a NDM-1 positive Escherichia coli BL21(DE3) isolates assessed as fractional Inhibitory concentration index incubated for 18 to 24 hrs in presence of rifampicin by CLSI based broth microdilution method", "assay_type": "functional", "conditions": "time 18-24 hrs"}, "Bacteria [14]": {"tested_on": "Bacteria", "experiment": "Inhibition of NDM-1 M248A mutant activity (unknown origin) in presence of zinc ion"}, "Escherichia coli [15]": {"tested_on": "Escherichia coli", "experiment": "Synergistic antibacterial activity against NDM-1 negative Escherichia coli ATCC25922 isolates assessed as fractional Inhibitory concentration index incubated for 18 to 24 hrs in presence of meropenem by CLSI based broth microdilution method", "assay_type": "functional", "conditions": "time 18-24 hrs"}, "Escherichia coli [16]": {"tested_on": "Escherichia coli", "experiment": "Antibacterial activity against NDM-1 positive Escherichia coli ZC-YN3 isolates assessed as ampicillin MIC incubated for 18 to 24 hrs by CLSI based broth microdilution method", "assay_type": "functional", "conditions": "time 18-24 hrs"}, "Escherichia coli [17]": {"tested_on": "Escherichia coli", "experiment": "Synergistic antibacterial activity against NDM-1 positive Escherichia coli ZC-YN3 isolates assessed as fractional Inhibitory concentration index incubated for 18 to 24 hrs in presence of tetracycline by CLSI based broth microdilution method", "assay_type": "functional", "conditions": "time 18-24 hrs"}, "Escherichia coli [18]": {"tested_on": "Escherichia coli", "experiment": "Synergistic antibacterial activity against pET28a NDM-1 positive Escherichia coli BL21(DE3) isolates assessed as fractional Inhibitory concentration index incubated for 18 to 24 hrs in presence of vancomycin by CLSI based broth microdilution method", "assay_type": "functional", "conditions": "time 18-24 hrs"}, "Escherichia coli [19]": {"tested_on": "Escherichia coli", "experiment": "Antibacterial activity against NDM-1 positive Escherichia coli ZC-YN3 isolates assessed as colistin MIC incubated for 18 to 24 hrs by CLSI based broth microdilution method", "assay_type": "functional", "conditions": "time 18-24 hrs"}, "Escherichia coli [20]": {"tested_on": "Escherichia coli", "experiment": "Antibacterial activity against pET28a-NDM-1 positive Escherichia coli BL21(DE3) isolates assessed as imipenem MIC incubated for 18 to 24 hrs by CLSI based broth microdilution method", "assay_type": "functional", "conditions": "time 18-24 hrs"}, "Escherichia coli [21]": {"tested_on": "Escherichia coli", "experiment": "Synergistic antibacterial activity against pET28a NDM-1 positive Escherichia coli BL21(DE3) isolates assessed as fractional Inhibitory concentration index incubated for 18 to 24 hrs in presence of colistin by CLSI based broth microdilution method", "assay_type": "functional", "conditions": "time 18-24 hrs"}, "Escherichia coli [22]": {"tested_on": "Escherichia coli", "experiment": "Antibacterial activity against pET28a-NDM-1 positive Escherichia coli BL21(DE3) isolates assessed as tetracycline MIC incubated for 18 to 24 hrs by CLSI based broth microdilution method", "assay_type": "functional", "conditions": "time 18-24 hrs"}, "Escherichia coli [23]": {"tested_on": "Escherichia coli", "experiment": "Antibacterial activity against pET28a-NDM-1 positive Escherichia coli BL21(DE3) isolates assessed as ampicillin MIC incubated for 18 to 24 hrs by CLSI based broth microdilution method", "assay_type": "functional", "conditions": "time 18-24 hrs"}, "[24]": {"experiment": "Inhibition of metallo-beta-lactamase NDM-1 (unknown origin) using nitrocefin as substrate preincubated for 15 min followed by substrate addition and measured after 15 min by microplate reader assay", "design": "species or system Bacteria"}, "Bacteria [25]": {"tested_on": "Bacteria", "experiment": "Binding affinity to NDM-1 H250A mutant (unknown origin) assessed as binding free energy by fluorescence quenching method"}, "Bacteria [26]": {"tested_on": "Bacteria", "experiment": "Inhibition of NDM-1 H250A mutant activity (unknown origin) in presence of zinc ion"}, "Escherichia coli [27]": {"tested_on": "Escherichia coli", "experiment": "Antibacterial activity against pET28a-NDM-1 positive Escherichia coli BL21(DE3) isolates assessed as kanamycin MIC incubated for 18 to 24 hrs by CLSI based broth microdilution method", "assay_type": "functional", "conditions": "time 18-24 hrs"}, "Escherichia coli [28]": {"tested_on": "Escherichia coli", "experiment": "Antibacterial activity against NDM-1 positive Escherichia coli ZC-YN3 isolates assessed as florfenicol MIC incubated for 18 to 24 hrs by CLSI based broth microdilution method", "assay_type": "functional", "conditions": "time 18-24 hrs"}, "Escherichia coli [29]": {"tested_on": "Escherichia coli", "experiment": "Synergistic antibacterial activity against NDM-1 positive MCR1 carrying Escherichia coli ZJ487 isolates assessed as fractional Inhibitory concentration index incubated for 18 to 24 hrs in presence of meropenem by CLSI based broth microdilution method", "assay_type": "functional", "conditions": "time 18-24 hrs"}, "Escherichia coli [30]": {"tested_on": "Escherichia coli", "experiment": "Antibacterial activity against NDM-1 positive Escherichia coli ZC-YN3 isolates assessed as rifampicin MIC incubated for 18 to 24 hrs by CLSI based broth microdilution method", "assay_type": "functional", "conditions": "time 18-24 hrs"}, "Escherichia coli [31]": {"tested_on": "Escherichia coli", "experiment": "Antibacterial activity against pET28a-NDM-1 positive Escherichia coli BL21(DE3) isolates assessed as florfenicol MIC incubated for 18 to 24 hrs by CLSI based broth microdilution method", "assay_type": "functional", "conditions": "time 18-24 hrs"}, "Escherichia coli [32]": {"tested_on": "Escherichia coli", "experiment": "Synergistic antibacterial activity against NDM-1 positive Escherichia coli ZC-YN3 isolates assessed as fractional Inhibitory concentration index incubated for 18 to 24 hrs in presence of doxycycline by CLSI based broth microdilution method", "assay_type": "functional", "conditions": "time 18-24 hrs"}, "Escherichia coli [33]": {"tested_on": "Escherichia coli", "experiment": "Synergistic antibacterial activity against NDM-1 positive Escherichia coli ZC-YN3 isolates assessed as fractional Inhibitory concentration index incubated for 18 to 24 hrs in presence of spectinomycin by CLSI based broth microdilution method", "assay_type": "functional", "conditions": "time 18-24 hrs"}, "Escherichia coli [34]": {"tested_on": "Escherichia coli", "experiment": "Antibacterial activity against NDM-1 positive Escherichia coli ZC-YN3 isolates assessed as kanamycin MIC incubated for 18 to 24 hrs by CLSI based broth microdilution method", "assay_type": "functional", "conditions": "time 18-24 hrs"}}, "note": "Activity calls are given as the source filed them. The rule behind the calls is not given here."}
{"smiles": "O=c1c(O)c(-c2ccc(O)c(O)c2)oc2cc(O)ccc12", "note": "[FISETIN]", "values": [{"measurement": "fractional inhibitory concentration index (FICI)", "setting": "Escherichia coli [1]", "result": 1.13}, {"measurement": "Activity", "setting": "Mus musculus [2]", "result": 20, "unit": "%"}, {"measurement": "fractional inhibitory concentration index (FICI)", "setting": "Escherichia coli [3]", "result": 1.13}, {"measurement": "fractional inhibitory concentration index (FICI)", "setting": "Escherichia coli [4]", "result": 1.13}, {"measurement": "fractional inhibitory concentration index (FICI)", "setting": "Escherichia coli [5]", "result": 1.13}, {"measurement": "fractional inhibitory concentration index (FICI)", "setting": "Escherichia coli [6]", "result": 1.13}, {"measurement": "IC50", "setting": "[7]", "result": 11.37, "unit": "µg/mL"}, {"measurement": "MIC", "setting": "Escherichia coli [8]", "result": 256, "unit": "µg/mL"}, {"measurement": "MIC", "setting": "Escherichia coli [9]", "result": 0.01, "unit": "µg/mL"}, {"measurement": "Activity", "setting": "Mus musculus [10]", "result": 90, "unit": "%"}, {"measurement": "MIC", "setting": "Escherichia coli [11]", "result": 427, "unit": "µg/mL"}, {"measurement": "MIC", "setting": "Escherichia coli [12]", "result": 1.67, "unit": "µg/mL"}, {"measurement": "fractional inhibitory concentration index (FICI)", "setting": "Escherichia coli [13]", "result": 0.96}, {"measurement": "inhibition", "setting": "Bacteria [14]", "result": "Active"}, {"measurement": "fractional inhibitory concentration index (FICI)", "setting": "Escherichia coli [15]", "result": 1.13}, {"measurement": "MIC", "setting": "Escherichia coli [16]", "result": 853, "unit": "µg/mL"}, {"measurement": "fractional inhibitory concentration index (FICI)", "setting": "Escherichia coli [17]", "result": 1.13}, {"measurement": "fractional inhibitory concentration index (FICI)", "setting": "Escherichia coli [18]", "result": 1.13}, {"measurement": "MIC", "setting": "Escherichia coli [19]", "result": 1.33, "unit": "µg/mL"}, {"measurement": "MIC", "setting": "Escherichia coli [20]", "result": 9.33, "unit": "µg/mL"}, {"measurement": "fractional inhibitory concentration index (FICI)", "setting": "Escherichia coli [21]", "result": 1.13}, {"measurement": "MIC", "setting": "Escherichia coli [22]", "result": 427, "unit": "µg/mL"}, {"measurement": "MIC", "setting": "Escherichia coli [23]", "result": 683, "unit": "µg/mL"}, {"measurement": "IC50", "setting": "[24]", "result": 9.66, "unit": "µg/mL"}, {"measurement": "Activity", "setting": "Bacteria [25]", "result": -12.4, "unit": "kcal/mol"}, {"measurement": "inhibition", "setting": "Bacteria [26]", "result": "Active"}, {"measurement": "MIC", "setting": "Escherichia coli [27]", "result": 512, "unit": "µg/mL"}, {"measurement": "MIC", "setting": "Escherichia coli [28]", "result": 341, "unit": "µg/mL"}, {"measurement": "fractional inhibitory concentration index (FICI)", "setting": "Escherichia coli [29]", "result": 0.38}, {"measurement": "MIC", "setting": "Escherichia coli [30]", "result": 10.7, "unit": "µg/mL"}, {"measurement": "MIC", "setting": "Escherichia coli [31]", "result": 683, "unit": "µg/mL"}, {"measurement": "fractional inhibitory concentration index (FICI)", "setting": "Escherichia coli [32]", "result": 0.96}, {"measurement": "fractional inhibitory concentration index (FICI)", "setting": "Escherichia coli [33]", "result": 1.13}, {"measurement": "MIC", "setting": "Escherichia coli [34]", "result": 853, "unit": "µg/mL"}]}
